According to PMC8333053, “Synthesis and biological screening of new thiadiazolopyrimidine-based polycyclic compounds” (Scientific Reports, 2021):
In brackets after ≈: the same amount, converted by molar mass.

How the values were obtained:
Format in all cases: cell-based
[1] = tested on: Aspergillus fumigatus 293; assay: Antifungal MIC, two-fold serial dilution; conditions: Fungi, glucose minimal medium, 30°C, 48 h, visual (no turbidity)
Protocol: (§1) The antimicrobial activity of the synthesized thiadiazolopyrimidine compounds was studied toward diverse pathogenic strains, such as gram-positive bacteria (Staphylococcus aureus ATCC 29213 and Bacillus cereus UW85), gram-negative bacteria (Escherichia coli ATCC 12435 and Pseudomonas aeruginosa ATCC 29260), and fungi (Candida albicans and Aspergillus fumigatus 293). The assessment was performed through the two-fold dilution technique using Ampicillin (antibacterial) and Fluconazole (antifungal) as the reference drugs[28],[29]. The minimal inhibitory concentration (MICs, µg/mL) of the synthesized derivatives for prohibiting microbial growth was determined through the visual detection (no turbidity) technique.
(§2) The synthesized thiadiazolopyrimidine-based compounds were evaluated and adopted for antibacterial and antifungal effectiveness using the approved procedure[38],[39].
(§3) Minimal inhibitory concentrations (MICs) were determined by serial dilution technique using 96-multiwell microtiter plates. The investigated compounds were dissolved in DMSO 100% to prepare stock solutions of 5000 µg/mL. Two-fold serial dilutions of the dissolved compounds were performed in glucose minimal medium providing eight different concentrations (1250, 625, 312.5, 156, 78, 39, 19.5 µg/mL). The microorganisms were diluted to 1 ×10^3 SFU/mL in glucose minimal medium, and 20 µL of the diluted culture was added to the test solutions (50 µL) in the wells (one well per concentration). The plates were incubated at 30°C for 48 h. MIC was detected visually as the least concentration inhibiting fungal growth (no turbidity) and the activity of the tested compounds was estimated in comparison to fluconazole.

Candida albicans = assay: Antifungal MIC, two-fold serial dilution; conditions: Fungi, glucose minimal medium, 30°C, 48 h, visual (no turbidity)
Protocol: as §1, §2, §3

[2] = MTT cytotoxicity assay on normal cells; conditions: human, WI38 normal fibroblast cells
Protocol: (§4) The cytotoxicity of the prepared tri-and tetra-cyclic thiadiazolopyrimidine compounds were examined toward various cancer cell lines, such as liver and breast cancer (MCF-7), prostate cancer (PC3), laryngeal carcinoma (Hep-2), carcinoma (HepG2), and standard normal fibroblast cells (WI38) using the MTT assay[33] at the National Research Centre (Egypt). The cytotoxicity (Table 3) toward 50% inhibition of the cell viability (IC50 values) was assessed using 5-fluorouracil (5-Fu) as the standard anticancer drug.
(§5) The synthesized compounds were subjected to the MTT cytotoxicity assay on the basis of the cited literature.
(§6) MTT cytotoxicity assay: The technical method of MTT assay depends on the reduction of yellow 3-(4,5-methyl-2-thiazolyl)-2,5-diphenyl-2H-tetrazolium bromide (MTT) into purple formazan product, mainly by mitochondrial reductase activity inside the living cells. The cells used in cytotoxicity assay were cultured in RPMI 1640 medium supplemented with 10% fetal calf serum. Cells suspended in the medium (2×10^4 cells/mL) were plated in 96-well culture plates and incubated at 37 °C in a 5% CO2 incubator for 12 hours. The tested sample (2 μL) was added to the cells (2×10^4) in 96-well plates and cultured at 37 °C for 3 days. The cultured cells were mixed with 20 μL of MTT solution and incubated for 4 hours at 37 °C. The supernatant was carefully removed from each well, the formazan crystals were dissolved after addition of DMSO (100 μL) for each well to form the cellular reduction of MTT. After mixing with a mechanical plate mixer, the absorbance of each well was measured by a microplate reader using a test wavelength of 570 nm. The results were expressed as the IC50 values, which inducing 50% inhibition of cell growth of the treated cells when compared to the growth of control cells.

[3] = tested on: Chromobacterium violaceum (ATCC 12472); assay: Antiquorum-sensing assay (violacein pigment inhibition); conditions: Chromobacterium violaceum, ATCC12472, 48 h, read-out: Diameter of quorum-sensing inhibition C. violaceum
Text: The synthesized thiadiazolopyrimidine-based compounds were screened for their antiquorum-sensing (anti-QS) inhibition activity by the Chromobacterium violaceum (ATCC 12472) technique using catechin as the standard compound[28]–[30]. The QS technique of C. violaceum was remarked by the detection of violacein (violet pigment)[31],[32]. Meanwhile, the reactivity of the synthesized thiadiazolopyrimidine-containing derivatives as drugs depends on their efficiency to inhibit the liberation of violacein during the QS technique. The QS inhibition was determined by the following equation: QS inhibition (mm) = (r2 − r1), where r1 is the inhibition radius of the bacterial growth and r2 is the inhibition radius for growth as well as the release of the pigment.
The anti-QS inefficiency was evaluated using the previous technique mentioned in the literature.
The culture was prepared by growing Ch. violaceum ATCC 12472 in LB broth and incubated for 16–18 h in an orbital incubator running at 28°C and 150 rpm. The culture was then adjusted to 0.5 McFarland standard (ca. 1 × 10^6 CFU/mL). Ch. violaceum (50 µL) was inoculated into LB agar (50 mL), poured into plates, and solidified. Wells were made in LB agar medium using cork borer. The tested compounds were dissolved in DMSO 100% in Eppendorf tubes for final concentration of 5 mg/mL, and 50 µL of the test solution was applied into the wells. The positive control (catechin) was also added at the same concentration and volume to each plate. In addition, DMSO (control solvent) was added to each plate. […] Bacterial growth inhibition by the tested compounds was measured as radius (r1) in mm, while both growth and pigment inhibition was measured as radius (r2) in mm. The pigment inhibition (QS inhibition) was determined by subtracting bacterial growth inhibition (r1) from the total radius (r2); thus, QS inhibition = (r2 - r1) in mm.

MCF-7 = assay: MTT cytotoxicity assay; conditions: Homo sapiens, MCF7, 72 h, 3 days
Protocol: as §4, §5, §6

HepG2 = assay: MTT cytotoxicity assay; conditions: Homo sapiens, HepG2, 72 h, 3 days
Protocol: as §4, §5, §6

PC3 = assay: MTT cytotoxicity assay; conditions: Homo sapiens, PC-3, 72 h, 3 days
Protocol: as §4, §5, §6

Hep-2 = assay: MTT cytotoxicity assay; conditions: Homo sapiens, HEp-2, 72 h, 3 days
Protocol: as §4, §5, §6

Question: Which results are given for `Cc1nn(-c2ccccc2)c2c1C1C(=C(N)O2)C(=O)N=C2SC=NN21` (stereo not drawn) [Compound 10b, 6-Amino-10-methyl-8-phenyl-8,10b-dihydro-5H-pyrazolo[4′,3′:5,6]pyrano[3,4-e][1,3,4]thiadiazolo[3,2-a]pyrimidin-5-one]?
Answer: MIC [1]: > 1250 µg/mL; MIC (Candida albicans): > 1250 µg/mL; IC50 at 3 days [2]: 25.4 ± 0.62 µM; zone of inhibition at 5000 µg/mL [3]: 9 mm; IC50 (MCF-7): 27.4 ± 0.49 µM; IC50 (HepG2): 37.6 ± 1.26 µM; IC50 (PC3): 27.3 ± 0.53 µM; IC50 (Hep-2): 28.8 ± 1.8 µM

Question: With `Cc1ccc(N=Nc2c(O)nn3c(N)c4c(=O)nc5scnn5c4nc23)cc1` [Compound 17a, 6-Amino-9-hydroxy-10-(4-methylphenylazo)-5H-pyrazolo[1′,5′:1,2]pyrimido[5,4-e][1,3,4]thiadiazolo[3,2-a]pyrimidin-5-one] as the compound, how does the MIC [1] read?
Answer: 1250 µg/mL (≈ 3.18 mM)

Question: And the MIC (Candida albicans)?
Answer: > 1250 µg/mL

Question: What about the IC50 at 3 days [2] of the same compound?
Answer: 57.9 ± 1.18 µM

Question: What about the zone of inhibition at 5000 µg/mL [3] of the same compound?
Answer: 11 mm

Question: And the IC50 (MCF-7)?
Answer: 9.36 ± 0.23 µM

Question: And the IC50 (HepG2)?
Answer: 38.27 ± 0.17 µM

Question: And the IC50 (PC3)?
Answer: 39.4 ± 2.01 µM

Question: What about the IC50 (Hep-2) of the same compound?
Answer: 29.58 ± 0.15 µM

Question: Which results are given for `Cc1n[nH]c2c1C1C(=C(N)O2)C(=O)N=C2SC=NN21` (stereo not drawn) [Compound 10a, 6-Amino-10-methyl-8,10b-dihydro-5H-pyrazolo[4′,3′:5,6]pyrano[3,4-e][1,3,4]thiadiazolo[3,2-a]pyrimidin-5-one]?
Answer: MIC [1]: > 1250 µg/mL; MIC (Candida albicans): 625 µg/mL (≈ 2.26 mM); IC50 at 3 days [2]: 23.3 ± 0.6 µM; zone of inhibition at 5000 µg/mL [3]: 13 mm; IC50 (MCF-7): 24.2 ± 0.52 µM; IC50 (HepG2): 42 ± 1.24 µM; IC50 (PC3): 40.11 ± 0.36 µM; IC50 (Hep-2): 34 ± 0.46 µM

Question: Which results are given for `CCOC(=O)c1c(N)nc(N)c2c(=O)nc3scnn3c12` [Compound 7, Ethyl 6,8-diamino-5-oxo-5H-pyrido[3,4-e][1,3,4]thiadiazolo[3,2-a]pyrimidine-9-carboxylate]?
Answer: MIC [1]: > 1250 µg/mL; MIC (Candida albicans): > 1250 µg/mL; IC50 at 3 days [2]: 43.8 ± 0.52 µM; zone of inhibition at 5000 µg/mL [3]: < 2 mm; IC50 (MCF-7): 39.8 ± 0.68 µM; IC50 (HepG2): 36.73 ± 0.17 µM; IC50 (PC3): 61.8 ± 1.35 µM; IC50 (Hep-2): 34.2 ± 0.93 µM

Question: Which MIC [1] does the source give for `Cc1ccc(N=Nc2c(N)nn3c(N)c4c(=O)nc5scnn5c4nc23)cc1` [Compound 16a, 6,9-Diamino-10-(4-methylphenylazo)-5H-pyrazolo[1′,5′:1,2]pyrimido[5,4-e][1,3,4]thiadiazolo[3,2-a]pyrimidin-5-one] here?
Answer: > 1250 µg/mL

Question: What about the MIC (Candida albicans) of the same compound?
Answer: > 1250 µg/mL

Question: And the IC50 at 3 days [2]?
Answer: 60.1 ± 2.41 µM

Question: What about the zone of inhibition at 5000 µg/mL [3] of the same compound?
Answer: 9 mm

Question: What about the IC50 (MCF-7) of the same compound?
Answer: 7.53 ± 0.08 µM

Question: What about the IC50 (HepG2) of the same compound?
Answer: 37.6 ± 1.26 µM

Question: What about the IC50 (PC3) of the same compound?
Answer: 44.2 ± 0.94 µM

Question: What about the IC50 (Hep-2) of the same compound?
Answer: 32.7 ± 0.36 µM

Question: With `Nc1c2c(=O)nc3scnn3c2nc2nnnn12` [Compound 11, 6-Amino-5H-[1,3,4]thiadiazolo[2′,3′:2,3]pyrimido[4,5-d]tetrazolo[1,5-a]pyrimidin-5-one] as the compound, how does the MIC [1] read?
Answer: > 1250 µg/mL

Question: And the MIC (Candida albicans)?
Answer: 1250 µg/mL (≈ 4.79 mM)

Question: And the IC50 at 3 days [2]?
Answer: 20.2 ± 0.39 µM

Question: And the zone of inhibition at 5000 µg/mL [3]?
Answer: 5 mm

Question: What about the IC50 (MCF-7) of the same compound?
Answer: 31.8 ± 0.67 µM

Question: What about the IC50 (HepG2) of the same compound?
Answer: 42.2 ± 1.17 µM

Question: And the IC50 (PC3)?
Answer: 38.1 ± 0.49 µM

Question: And the IC50 (Hep-2)?
Answer: 38.8 ± 0.74 µM

Question: For `CC(=O)C1=C(C)OC(N)=C2C(=O)N=C3SC=NN3C12` (stereo not drawn) [Compound 8a, 9-Acetyl-6-amino-8-methyl-5H,9aH-pyrano[3,4-e][1,3,4]thiadiazolo[3,2-a]pyrimidin-5-one], which MIC [1] is on record?
Answer: > 1250 µg/mL

Question: What about the MIC (Candida albicans) of the same compound?
Answer: 312 µg/mL (≈ 1.12 mM)

Question: And the IC50 at 3 days [2]?
Answer: 27.5 ± 0.6 µM

Question: And the zone of inhibition at 5000 µg/mL [3]?
Answer: 3 mm

Question: And the IC50 (MCF-7)?
Answer: 33.42 ± 0.23 µM

Question: What about the IC50 (HepG2) of the same compound?
Answer: 37.12 ± 0.23 µM

Question: What about the IC50 (PC3) of the same compound?
Answer: 34.4 ± 0.64 µM

Question: And the IC50 (Hep-2)?
Answer: 22.61 ± 0.21 µM

Question: With `N#Cc1cn2ncsc2nc1=O` [Compound 3, 6-cyano-7-oxo-7H-[1,3,4]thiadiazolo[3,2-a]pyrimidine] as the compound, how does the MIC [1] read?
Answer: > 1250 µg/mL

Question: And the MIC (Candida albicans)?
Answer: > 1250 µg/mL

Question: What about the IC50 at 3 days [2] of the same compound?
Answer: 7.82 ± 1.33 µM

Question: What about the zone of inhibition at 5000 µg/mL [3] of the same compound?
Answer: < 2 mm

Question: What about the IC50 (MCF-7) of the same compound?
Answer: 78 ± 1.37 µM

Question: What about the IC50 (HepG2) of the same compound?
Answer: 82.3 ± 2.19 µM

Question: And the IC50 (PC3)?
Answer: 92.8 ± 3.48 µM

Question: What about the IC50 (Hep-2) of the same compound?
Answer: 87.5 ± 2.35 µM

Question: What does the source list for `Cc1cc2nc3c(c(N)n2n1)c(=O)nc1scnn13` [Compound 13, 6-Amino-9-methyl-5H-pyrazolo[1′,5′:1,2]pyrimido[5,4-e][1,3,4]thiadiazolo[3,2-a]pyrimidin-5-one]?
Answer: MIC [1]: > 1250 µg/mL; MIC (Candida albicans): 1250 µg/mL (≈ 4.57 mM); IC50 at 3 days [2]: 44.4 ± 1.24 µM; zone of inhibition at 5000 µg/mL [3]: 5 mm; IC50 (MCF-7): 57.6 ± 1.4 µM; IC50 (HepG2): 28.6 ± 0.41 µM; IC50 (PC3): 35.6 ± 0.88 µM; IC50 (Hep-2): 30.2 ± 0.59 µM
